# According to patent US20050202508A1, “Biomarker for Parkinson's disease” (priority 2003, published 2005):
# B1: hrPIF: human recombinant full length dermicidin, His-tagged, expressed in M15 bacterial cells (protein)
# chain: YDPEAASAPGSGNPCHEASAAQKENAGEDPGLARQAPKPRKQRSSLLEKGLDGAKKAVGGLGKLGKDAVEDLESVGKGAVHDVKDVLDSVL
# modifications: left off: small tags and cut ends
# notes: human recombinant full length dermicidin, His-tagged, expressed in M15 bacterial cells
# Experiments:
# [1] = test system: substantia nigra DAergic neurons; type: in vivo, mouse
# Description: In this study SN DAergic lesions in male C57B6/SJ mice were obtained by i.p. MPTP injection (four consecutive injections at 2 hr intervals; 20 mg/kg/body weight (BW) per injection 27); saline injected mice were used as a control (n=4 per group). Four days following MPTP (or saline) injection, mice were anesthetized using a combination of ketamine (50 mg/kg BW) and xylazine (5 mg/kg BW), CSF was then collected from cisterna magna, as previously described^28. Immediately after CSF collection (4 days post-lesioning), mice were sacrificed by cervical dislocation and the brain was collected, preserved under cryoprotection and stored at −80° C. 1 μl of CSF from each animal was analyzed by SELDI technology as described in FIG. 1. […] In panel 3B, number of thyroxine hydroxylase (TH)-immunoreactive DAergic neurons in the SN counted stereologically, with data are expressed as mean+SEM for MPTP and saline groups. In panels A and B, n=4 per group; *P<0.05.
# [2] = test system: substantia nigra; test: In vivo MRM T2-weighted imaging of substantia nigra after MPTP lesion; set-up: species or system mouse
# Source text: The goal of this study was to develop a non-invasive methodology for functionally assessing the predicative role of novel protein biomarkers in CSF (and serum) for experimental MPTP SN neurodegeneration in pre-clinical models of PD (Aim 4) using MRM imaging technology in collaboration with Dr. Cheuk Tang (Collaborator, Imaging Sciences Laboratory, Dept. Neuroradiology) and Dr. Patrick Hof (Collaborator, Advance Imaging Program, Center for Neurobiology), of Mount Sinai Medical School. The studies are based on the principle that increased iron content found in SN of PD and MPTP models of PD^29-31 may be an index of SN neurodegeneration, which can be monitored by MRM^32,33, longitudinally. Given that MRM measurement is highly sensitive to iron content in SN dopaminergic cells, we hypothesized that MRM may offer a means for non-invasive evaluation of SN neurodegeneration. In exciting ongoing studies, using a 9.4 Tesla micro MRM imager (Bruker Instrument) we collected matched consecutive rostro-caudal T2-weighted in vivo MRM images of the whole brain from the same mouse, prior to and four-days after SN MPTP lesion. […] As predicted, this observation of hypo-intense MRM measurements in the SN post-lesioning is consistent with an elevation in iron content in the degenerating nigrostriatal DAergic neurons. […]
# [3] = target: PIF cell surface receptor (DCD receptor) (human); test: Scatchard analysis of AP-PIF binding to human SH-SY5Y neuronal cells
# [4] = test system: PIF mRNA; test: PIF mRNA expression after MPP+ treatment, northern blot; type: cell-based; details: MPP+ treatment 12 hr, enriched rat DAergic neuron cultures, FIG. 12A
# Source text: (§1) The exact molecular mechanisms leading to the pathophysiology of PD are not well understood. MPP^+, a mitochondrial complex I inhibitor, produces PD-type symptoms in humans and laboratory animals and has been used to investigate PD pathogenesis^12,13. MPP^+, the ultimate metabolite of MPTP, is taken up into DAergic neurons where it accumulates in mitochondria and works to inhibit complex I activity. Although the mechanism of MPP^+-induced neurotoxicity is not fully understood, there is increasing evidence supporting the involvement of reactive oxygen species (ROS)^14. […]
# (§2) For these studies enriched mesecephalic DAergic cultures were obtained from E16 Sprague Dawley embryos and cultured for 10 days in poly 1-ornithine coated culture dish at a density of 0.5×10^6 cells per well and maintained in Neurobasal medium with B-27 supplement and 0.5 mM glutamine, as previously described^16. In A, following MPP^+ treatment for 12 hr, total RNA was extracted from the neuronal cultures using Ultraspec RNA (Biotecx) and PIF mRNA expression assessed by northern blot hybridization assay using ^32p labeled hPIF cDNA^17 and quantified by phospho-imaging (Molecular Dynamics). […] Non-specific transport was determined in parallel assays conducted in the presence of 1 uM GBR12909 and incorporated [^3H]-dopamine was extracted with NaOH (0.5M) and quantified by liquid scintillation spectrometry
# [5] = test system: SY5Y neuroblastoma catecholaminergic cells; test: MPP+ toxicity in SY5Y cells, MTT assay; type: cell-based; details: 24 hr after exposure to MPP+; dose dependent; FIG. 9
# Description: The PD biomarker DCD-1 promotes neurotoxicity in SY5Y cells in a dose dependent manner. In this study cell toxicity in SY5Y cells was assessed 24 hr after exposure to MPP+ using methylthiazoletetrazolium [3 (4,5-dimethylthiazol-2-yl)-2,5-diphenyltetrazolium bromide] (MTT) calorimetric assay, (an index or altered energy metabolism). Values represent Means+SEM of determinations from 2 separate cultures, n=3 cultures chambers per group * P<0.05 between MPP+ and MPP+ and DCD-1 treatment (see FIG. 9).
# [6] = test system: PD patients; details: cited from earlier work
# [7] = test system: rat mesencephalic DAergic neuron cultures; test: MPP+-mediated neurotoxicity in enriched rat mesencephalic DAergic neuron cultures, [3H]-dopamine uptake assay; type: cell-based
# Source text: as §1, §2
# [8] = test system: α-synuclein; test: alpha-synuclein immunoblot in enriched DAergic neuron cultures after hrPIF treatment; type: cell-based, rat
# Source text: Because of the recent evidence showing increased α-synuclein expression increases vulnerability to MPP/MPTP^19, we decided to explore the possibility that PIF might have promoted DAergic neurodgeneration through mechanisms that involve α-synuclein expression. […] This evidence is also consistent with work in Drosophila where overexpression of α-synuclein leads to DAergic toxicity^22. In these studies (see FIG. 13) 10 days old enriched […] cultures were obtained as discussed in FIG. 12. In A, following treatment with increasing concentrations of hrPIF, cultures lysed in each well using SDS-PAGE (5 mM Tris-HCl, 2% SDS, 0.1 M DTT, 0.001% Bromphenol blue, 10% glycerol, pH6.8) sample buffer. […] After 5 min incubation at RT in buffer, the Triton X-100 soluble fraction was gently collected from the-dish-. -The remaining Triton-insoluble material was gently rinsed once with ice cold PBS, and collected in buffer N (0.1 M Na2CO3, pH 11.5 with protease inhibitor cocktails). In C, the Triton-insoluble synuclein fraction was collected in the pellet by centrifugation at 16,000 g for 10 min and dissolved in 1×SDS buffer. Immunoblots used monoclonal anti α-synuclein antibody (1:1000, BD Bioscience) and immunoreactivities were visualized densitometrically.
molecule,measurement,setting,value
CN1CC=C(c2ccccc2)CC1 [MPTP],loss of tyrosine hydroxylase (TH) immunopositive neurons,"[1]; MPTP i.p. 4 x 20 mg/kg, 4 days post-lesioning, stereological count",approximately 25%
same,4.6 kDa anionic DCD-like protein in CSF,"[1]; mouse, in vivo",induced
same,decrease in SN T2 density / T2-weighted values vs pre-lesion,"[2]; after MPTP lesion, n=2, 9.4 Tesla MRM",approximately 25%
same,average normalized SN T2 density (SN T2 density/temporal T2 density),"[2]; post-MPTP lesioning, N=2 animals",0.6904 ± 0.05
N-terminal alkaline phosphatase (AP) C-terminal PIF (DCD) precursor protein fusion protein (from UniProt P81605 20-110) (ligand),Kd,[3],51 nM
same,maximum binding concentration (receptors per cell) (PIF receptors per cell),[3],30000
"C[n+]1ccc(-c2ccccc2)cc1 [MPP^+, 1-Methyl-4-phenylpyridinium ion]",PIF mRNA expression,[4],dose dependently induced
"DCD-1: human recombinant DCD-1, aa 63-109 of dermcidin precursor, 4.7 kDa (SEQ ID NO:1) (SSLLEKGLDGAKKAVGGLGKLGKDAVEDLESVGKGAVHDVKDVLDSV; homo sapiens)",effect on MPP+ mediated death (MTT),[5],potentiates MPP+ mediated death
N[C@@H](Cc1ccc(O)c(O)c1)C(=O)O [L-dopa],"extension of lifespan of PD patients, on average",[6],one
B1,"potentiation of MPP+-mediated neurotoxicity, dopamine uptake assay","[7]; exogenous hrPIF with MPP+, 12 hours, FIG. 12B",~1.5 fold
same,potentiation of MPP+-induced neurotoxicity,"[7]; exogenous hrPIF, rat mesencephalic DAergic neuron cultures, summary statement",~2 fold
same,soluble oligomeric α-synuclein protofibrils,"[8]; Triton X-100 soluble fraction, FIG. 13B",accumulation
same,aggregated α-synuclein,"[8]; Triton-insoluble fraction, FIG. 13C",not aggregated α-synuclein
same,expression of total α-synuclein,"[8]; hrPIF treatment, FIG. 13A",increased expression
